Patent publication US20050245508A1, “Treatment of malignant gliomas with TGF-beta inhibitors” (SCIOS, Inc., priority 2003, published 2005)

Legend:
Smad2 phosphorylation = test: Immunoblot of p-Smad2 and total Smad2/3 in glioma cells; assay type: cell-based
Method: (§1) FIG. 2. Abrogation of autocrine TGF-β signaling in glioma cells by Compound No. 79. A. The cells were seeded at 10^4 cells/well in 96 well plates and cultured in the absence or presence of Compound No. 79 for 48 h in serum-free medium. Growth was assessed by [methyl-^3H]-thymidine incorporation at 48 h (*p<0.05, t-test). B. Lysates from untreated glioma cells or cells preexposed to Compound No. 79 (1 μM) for 24 h or exposed to TGF-b2 (5 ng/ml) for 1 h or both were assessed for the levels of p-Smad2 or total Smad2/3. Note that the antibodies were specific to p-Smad2 and total Smad 2 and 3, respectively.
The levels of phosphorylated Smad2 (p-Smad2) protein levels were analyzed by immunoblot using 20 μg of protein per lane on a 12% acrylamide gel. After transfer to a PVDF membrane (Amersham, Braunschweig, Germany), the blots were blocked in PBS containing 5% skim milk and 0.05% Tween 20, and incubated overnight at 4° C. with p-Smad2 antibody (2 μg/ml). Visualization of protein bands was accomplished using horseradish peroxidase-coupled secondary antibody (Sigma) and enhanced chemiluminescence (Amersham). Total Smad2/3 levels were assessed using a specific Smad2/3 antibody (Becton-Dickinson).

LN-308 targets = test: 51Cr release lysis assay, PBL or T cells precultured with irradiated glioma cells; assay type: cell-based, human; settings: preexposure 1 μM during coculture with irradiated glioma cells, 4 h 51Cr release, FIG. 3A
Method: FIG. 3. Modulation of allogeneic anti-glioma immune responses by Compound No. 79 involves TGF-β antagonism. A. The lytic activity against LN-308 targets of PBL (squares) or purified T cells (triangles) preincubated with irradiated LN-308 cells in the absence (open symbols) or presence (filled symbols) of Compound No. 79 (1 μM) was determined in ^51Cr release assays. B-D. PBL were cultured in the absence (left) or presence (right) of irradiated LN-308 cells for 5 days. The cultures contained Compound No. 79 (1 μM) (filled bars) or not (open bars). Subsequently these effector cells were cocultured for 24 h with fresh non-irradiated LN-308 cells in the absence of Compound No. 79. The release of IFN-γ (B), TNF-α (C) or IL-10 (D) was assessed by Elispot assay. Data are expressed as cytokine-producing cells per 5×10^5 effector cells (n=3, *p<0.05, **p<0.01, t-test, effect of Compound No. 79). […]
HLA-A2-mismatched PBL or T cells (107/25 cm2 flask) were cocultured with 106 irradiated (30 Gy) glioma cells for 5 days. […] The maximum 51Cr release was determined by addition of NP40 (1%). After 4 h the supernatants were transferred to a Luma-PlateTM-96 (Packard, Dreieich, Germany) and measured. The percentage of 51Cr release was calculated as follows: 100×([experimental release−spontaneous release]/[maximum release−spontaneous release]).

LN-308 glioma cells = test: Glioma cell growth, [methyl-3H]-thymidine incorporation; assay type: cell-based, human
Method: as §1
The glioma cells and CCL64 cells were maintained in DMEM supplemented with 2 mM L-glutamine (Gibco Life Technologies, Paisley, UK), 10% FCS (Biochrom KG, Berlin, Germany) and penicillin (100 IU/ml)/streptomycin (100 μg/ml) (Gibco). Growth and viability of the glioma cells was examined by crystal violet, LDH release (Roche, Mannheim, Germany) and trypan blue dye exclusion assays. To assess clonogenicity, 500 SMA-560 cells were seeded into 6 well plates (9.4 cm^2). After formation of visible cell formations, colonies>20 cells were counted.

In the case of `Fc1ccc(Cl)cc1-c1nc(Nc2ccncc2)c2nccnc2n1` [Compound No. 79], the “total cellular Smad2/3 levels” value (Smad2 phosphorylation; 1 μM 24 h, FIG. 2B) is reported as “without altering”, the “Smad2 phosphorylation by endogenous or exogenous TGF-β” value (Smad2 phosphorylation; 1 μM 24 h preexposure, TGF-β2 5 ng/ml 1 h, FIG. 2B) is reported as “interfered with Smad2 phosphorylation” and the “pSmad phosphorylation signal in untreated glioma cells” value (Smad2 phosphorylation; no exogenous TGF-β) is reported as “abolished”. For the same compound, the “lytic activity of HLA-A2-mismatched PBL or purified T cells” value (LN-308 targets) was “significantly enhanced”, the proliferation (LN-308 glioma cells; concentrations required to block TGF-β in the CCL64 bioassay, 48 h) was “no effect” and the growth (LN-308 glioma cells; higher concentrations of up to 1 μM, FIG. 2A) was “moderately inhibited”.
